{"source": "ChEMBL document CHEMBL5137000", "about": "“Discovery of a novel and potent inhibitor with differential species-specific effects against NLRP3 and AIM2 inflammasome-dependent pyroptosis” (Eur J Med Chem, 2022)", "biological_target": "NACHT, LRR and PYD domains-containing protein 3 (Homo sapiens) (UniProt Q96P20)", "sequence (Q96P20 whole entry, the tested form may be a part)": "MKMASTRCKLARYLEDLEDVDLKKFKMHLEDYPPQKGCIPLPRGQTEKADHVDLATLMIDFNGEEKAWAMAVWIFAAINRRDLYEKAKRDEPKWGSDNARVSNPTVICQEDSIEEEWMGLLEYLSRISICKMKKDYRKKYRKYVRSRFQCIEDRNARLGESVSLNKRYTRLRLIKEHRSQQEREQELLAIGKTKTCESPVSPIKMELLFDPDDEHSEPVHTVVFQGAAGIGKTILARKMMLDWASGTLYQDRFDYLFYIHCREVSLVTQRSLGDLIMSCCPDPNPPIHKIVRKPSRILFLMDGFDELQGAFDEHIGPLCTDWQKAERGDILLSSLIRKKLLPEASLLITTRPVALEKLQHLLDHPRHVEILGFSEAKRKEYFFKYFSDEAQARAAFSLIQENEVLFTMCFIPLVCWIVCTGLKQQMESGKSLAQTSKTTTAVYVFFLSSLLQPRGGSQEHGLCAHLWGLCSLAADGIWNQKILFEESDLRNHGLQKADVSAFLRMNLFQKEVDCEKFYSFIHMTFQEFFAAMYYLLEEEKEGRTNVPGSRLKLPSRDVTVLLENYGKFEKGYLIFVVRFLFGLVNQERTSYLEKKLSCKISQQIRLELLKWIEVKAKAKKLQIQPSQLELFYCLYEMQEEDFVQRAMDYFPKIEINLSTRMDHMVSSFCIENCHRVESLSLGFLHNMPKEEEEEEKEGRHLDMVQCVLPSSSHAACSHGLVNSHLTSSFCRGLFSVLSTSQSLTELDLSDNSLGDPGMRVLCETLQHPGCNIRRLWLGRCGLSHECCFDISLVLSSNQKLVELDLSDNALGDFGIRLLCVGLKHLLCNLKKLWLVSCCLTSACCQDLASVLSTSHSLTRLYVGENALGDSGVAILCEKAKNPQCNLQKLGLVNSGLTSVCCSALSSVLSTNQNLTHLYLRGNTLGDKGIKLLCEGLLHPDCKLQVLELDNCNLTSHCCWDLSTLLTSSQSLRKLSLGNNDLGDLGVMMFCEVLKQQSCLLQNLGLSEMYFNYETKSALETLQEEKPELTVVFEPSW", "experiment": "Inhibition of NLRP3 inflammasome activation in LPS-primed human THP-1 cells assessed as reduction in nigericin-induced IL-1beta release in supernatant pretreated for 30 mins followed by nigericin stimulation and measured after 30 min by ELISA", "assay_type": "cell-based", "settings": "time 60.0 min", "note": "Calls of active or inactive are those of the source. The calls are words filed in the database; no cut-off is given here.", "data": [{"smiles": "COc1ccc(CC(=O)Nc2cccc(B(O)O)c2)cc1", "values": [{"measurement": "inhibition", "result": "Active"}]}]}
